The results in this text go back to patent US10039288B2, “Pathogenic infections” (University of Surrey, priority 2015, dated 2018).

The test system of assay [1] is Plasmopara viticola. As to the kind of experiment: In vitro zoospore germination and activity, MIC(100%). Type of assay: cell-based. The settings on record: for MIC: Plasmopara viticola, read-out: Minimal inhibitory concentration (MIC(100%)) Plasmopara viticola; for Minimal inhibitory concentration (MIC(100%)) Plasmopara viticola: zoospore germination and activity, in vitro.

The next assay concerns Phytophthora infestans. Type of assay: cell-based. The settings on record: germination, in vitro.
The subject of assay [2] is Plasmopara viticola. Description: Preliminary screening of crude extracts and compounds (Table 3).
In another assay the test system is P. viticola. The arrangement: species or system Plasmopara viticola.
Setting [3] is: 0.147% mass/volume, Isopropanol.

In brackets after ≈: the same amount, converted by molar mass. Several values for one entry are separate records, joined by “and”; a condition that tells them apart may be missing. Equal values may be shown once. Read-outs that look alike come from different tables or passages of the source.

For the compound `COc1cc(C[C@H]2CO[C@H](c3ccc(O)c(OC)c3)[C@H]2CO)ccc1O` [Compound 3, (+)-lariciresinol], the MIC in the assay with Plasmopara viticola [1] is 250 µg/mL (≈ 694 µM). In the assay with Phytophthora infestans, the “Minimal inhibitory concentration (MIC(100%)) Phytophthora infestans” value was “No activity”. The Activity in the assay with Plasmopara viticola [2] (sample 0.01% mass/volume) was determined as 14.4%; in the assay with Plasmopara viticola [2] (sample 0.1% mass/volume), 94.1%.
Turning to `C=C[C@@](C)(O)CC[C@H]1C(=C)C[C@H](O)[C@H]2C(C)(C)CCC[C@]12C` [Compound 1, larixol], the “Efficacy (%)” value was determined as 36.3% in the assay with P. viticola (0.0147% mass/volume, Isopropanol); 91.2% with P. viticola (0.025% mass/volume, Ethanol); 100.0% in the assay on P. viticola (0.074% mass/volume, Isopropanol); 98.8% in the assay on P. viticola (0.1% mass/volume, Ethanol); 99.5% in the assay on P. viticola (setting [3]). Moreover, the “Minimal inhibitory concentration (MIC(100%)) Plasmopara viticola” value in the assay with Plasmopara viticola [1] is recorded as 16 ppm. The “Minimal inhibitory concentration (MIC(100%)) Phytophthora infestans” value in the assay on Phytophthora infestans stood at 500 ppm. In addition, the results for the Activity in the assay with Plasmopara viticola [2] (sample 0.0147% mass/volume), in the assay with Plasmopara viticola [2] (sample 0.074% mass/volume) and in the assay on Plasmopara viticola [2] (sample 0.147% mass/volume) were 36.3%, 100% and 99.5%, respectively.
Regarding `COc1cc(C[C@H]2CO[C@H](c3ccc(O)c(OC)c3)[C@H]2COC(C)=O)ccc1O` [Compound 4, (+)-lariciresinol acetate], the MIC in the assay with Plasmopara viticola [1] worked out at 125 µg/mL. The “Minimal inhibitory concentration (MIC(100%)) Phytophthora infestans” value in the assay with Phytophthora infestans is listed as “No actvity”. The Activity in the assay with Plasmopara viticola [2] (sample 0.008% mass/volume) stood at 13.1%; with Plasmopara viticola [2] (sample 0.036% mass/volume), 78.8%; in the assay with Plasmopara viticola [2] (sample 0.08% mass/volume) it was 92.4%.
`C=CC(C)(O)CCC1C(=C)CC(OC(C)=O)C2C(C)(C)CCCC12C` (stereo not drawn) [Compound 2, larixyl acetate]: the “Efficacy (%)” value was 24.5% in the assay on P. viticola (0.01% mass/volume, Isopropanol); 69.2% with P. viticola (0.012% mass/volume, Ethanol); 83.3% in the assay on P. viticola (0.025% mass/volume, Ethanol); 98.4% with P. viticola (0.05% mass/volume, Ethanol); 99.9% and 99.4% in the assay on P. viticola (0.1% mass/volume, Ethanol); 100.0% in the assay with P. viticola (0.12% mass/volume, Ethanol). Also, in the assay on P. viticola (setting [3]), the “Efficacy (%)” value came to 99.5%. In addition, the “Minimal inhibitory concentration (MIC(100%)) Plasmopara viticola” value in the assay on Plasmopara viticola [1] worked out at 4 ppm. The “Minimal inhibitory concentration (MIC(100%)) Phytophthora infestans” value in the assay with Phytophthora infestans was found to be 125 ppm. Further, the figures for the Activity in the assay on Plasmopara viticola [2] (sample 0.012% mass/volume) and in the assay with Plasmopara viticola [2] (sample 0.12% mass/volume) were 69.2% and 100%, respectively.
